Assay results: patent publication US12630536B2, “Cyanotriazine derivative, preparation method therefor, and application thereof” (Chengdu Fanxi Biopharma Co., LTD., priority 2020, dated 2026)

Tests used:
[1] = molecular target: T1, THR-β ligand-binding domain (H6-THR-β) (Homo sapiens, UniProt P10828); test: Co-activated peptide recruitment test of THR-β/RXR/GRIP1 (TR_LBD agonist detection, HTRF); assay type: biochemical
T1 construct: made in house; host or cells: Escherichia coli BL21 (DE3), vector pET28a
T1 sequence (P10828 217-461 limits assumed): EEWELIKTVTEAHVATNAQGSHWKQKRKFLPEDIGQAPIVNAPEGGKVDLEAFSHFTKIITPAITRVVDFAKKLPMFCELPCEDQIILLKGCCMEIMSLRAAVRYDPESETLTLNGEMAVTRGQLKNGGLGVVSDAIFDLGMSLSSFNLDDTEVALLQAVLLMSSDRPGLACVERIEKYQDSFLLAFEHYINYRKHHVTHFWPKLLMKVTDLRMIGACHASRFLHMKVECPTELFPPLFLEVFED
T1 sequence (P19793 225-462 partner limits assumed): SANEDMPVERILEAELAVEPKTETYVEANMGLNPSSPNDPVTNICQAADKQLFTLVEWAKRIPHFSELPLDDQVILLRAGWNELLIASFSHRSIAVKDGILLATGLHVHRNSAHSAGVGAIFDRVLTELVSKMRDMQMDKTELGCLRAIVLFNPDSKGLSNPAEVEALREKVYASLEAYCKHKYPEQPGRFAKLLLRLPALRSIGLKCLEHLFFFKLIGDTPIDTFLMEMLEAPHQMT
T1 sequence (Q15596 679-703 partner limits assumed): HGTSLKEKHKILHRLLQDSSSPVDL
Method: (§1) A ligand binding domain of THR-β (amino acids 148-410) (H6-THR-β) and a ligand binding domain of THR-α (amino acids 202-461) (H6-TRα) were cloned into E. coli expression vector pET28a (Novagen, Milwaukee, Wis.) containing N-terminal six His sequences. The resulting recombinant six-His-tagged protein was produced in E. coli BL21(DE3) cells. The cells were grown in Terrific Broth (self-used self-prepared Bacto tryptone (3.3%, w/v), Difico yeast extract (2.0%, w/v) and NaCl (0.5%, w/v) medium), incubated at 25° C. for 24 hours using a shake flask in 0.2 mM IPTG, harvested or dissolved with 5 volumes of buffer A (0.05 M Tris, 0.3 M NaCl, 1% W/V betaine, 0.01 M imidazole, 0.02 M b-mercaptoethanol, pH 8.0). Lysozyme (1.0 mg/ml, Sigma) and CompleteProtease Inhibitor Cocktail (Roche Diagnostics Gmbh) were added to the slurry and the solution was sonicated for one minute and 5 times at 4° C. The suspension was centrifuged at 127,300 RCF for 2 hours in a Ti45 Beckmann rotor and the supernatant was loaded onto an NI NTAAgarose (Quigen 30210) column. After washing with the buffer A, […] or H6-THR-α was eluted with the buffer A containing 0.25 M imidazole.
(§2) 30 microliters of H6-THR-β (50 nM) or H6-THR-α in 50 mM Hepes, pH 7.0, 1 mM DTT, 0.05% NP40 and 0.2 mg/ml BSA (binding buffer) were mixed with an equal volume of EE-RxRα (50 nM) in the binding buffer. […] Aliquot ([…]) was transferred to a 384-well black microtiter plate. HTRF signal was read on a Victor5 reader (PerkinElmer Life and Analytical Sciences). EC50 was calculated.
(§3) Gene clones expressing a ligand-binding domain (amino acids 148-410) of THR-β (H6-THR-β) and a ligand-binding domain (amino acids 202-461) of THR-α (H6-THR-α) were inserted into an Escherichia coli expression vector pET28a, and the expression vector contained one N-terminal 6-His sequence. The expression vector was introduced into an Escherichia coli BL21 (DE3) strain to produce a recombinant protein with a His tag. […] After finishing culturing, a bacterium in culture was collected, and the collected bacterium was resuspended with a lysis solution (0.05 M Tris, 0.3 M NaCl, 1% W/V betaine, 0.01 M imidazole, 0.02 M β-mercaptoethanol, and pH 8.0) with a volume 5 times that of the bacterium, and lysozyme and protease inhibitors were added at the same time, the treated bacteria was subjected to ultrasonic lysis (5 times per minute) in ice bath (4° C.). A lysed suspension was centrifuged at 127300 RCF for 2 hours, a supernatant was loaded on a NI_NTA agarose (Quigen 30210) column, and after washing with a buffer A, an H6-TRβ or H6-TRα protein was eluted with the buffer A containing 0.25 M imidazole.
(§4) A human retinol X receptor (amino acid 225-462) (RxRα) was subjected to engineering modification, so that an N-terminal of the human retinol X receptor had His6 and EE(EFMPME) tags, and then the human retinol X receptor was cloned into a pACYC vector, and produced a His6 EEtagged protein in Escherichia coli. IPTG with a final concentration of 0.1 mM was added into the culture medium for induction, and cultured in a shaking flask at 18° C. for 18 hours. After finishing culturing, a bacterium in culture was collected, and the collected bacterium was re-suspended with a lysis solution (0.05 M Tris, 0.3 M NaCl, 1% W/V betaine, 0.01 M imidazole, 0.02 β-mercaptoethanol, and pH 8.0) with a volume 5 times that of the bacterium, lysozyme and protease inhibitors were added at the same time, and stirred at 4° C. for 30 minutes. Then, a suspension was subjected to an ultrasonic treatment at 4° C. for 30 seconds for 5 times. The suspension was collected, and centrifuged at 12000 RCF for 20 minutes. A supernatant was collected, and the supernatant was filtered with a membrane with a pore size of 0.45 μm, and then added with 0.5% NP-40.

[2] = molecular target: T2, THR-α ligand-binding domain (H6-THR-α) (Homo sapiens, UniProt P10827); test: Co-activated peptide recruitment test of THR-α/RXR/GRIP1 (TR_LBD agonist detection, HTRF); assay type: biochemical
T2 construct: made in house; host or cells: Escherichia coli BL21 (DE3), vector pET28a
T2 sequence (P10827 148-410 isoform P10827-2 limits assumed): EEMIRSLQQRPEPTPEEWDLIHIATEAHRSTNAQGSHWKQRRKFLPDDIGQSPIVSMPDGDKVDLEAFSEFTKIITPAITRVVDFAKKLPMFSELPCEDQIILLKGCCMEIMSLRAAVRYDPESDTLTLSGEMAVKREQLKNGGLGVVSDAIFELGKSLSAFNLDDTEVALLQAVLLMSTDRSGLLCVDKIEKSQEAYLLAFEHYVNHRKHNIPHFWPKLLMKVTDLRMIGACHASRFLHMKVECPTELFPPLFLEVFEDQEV
T2 sequence (P19793 225-462 partner limits assumed): T1 sequence (P19793 225-462 partner limits assumed)
T2 sequence (Q15596 679-703 partner limits assumed): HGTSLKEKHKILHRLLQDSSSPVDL
Method: as §1, §2, §3, §4

[3] = tested on: golden hamsters fed with high-fat feedstuffs (hyperlipidemia model); test: In-vivo pharmacodynamic test, high-fat feed hyperlipidemia model; details: oral once per day, 4 weeks
Method: Administration mode: oral administration was carried out once per day with a time interval of 24 hours for 4 consecutive weeks. During the experiment, the animals were weighed twice per week, and a remaining amount and an adding amount of the feedstuffs were recorded before each blood sampling detection for calculating a food intake of each group of animals during administration.
The food utilization rate represents a weight gain in gram of an animal taking per 100 g of feedstuffs, so that food utilization rate=weight gain (g)/food intake (100 g)×100%.

EC50 ([1]; Detection of TR_LBD agonist, read-out: TR_beta_EC50): 4.96 nM
Maximum activity ratio (A520/A495) ([1]; TR_LBD agonist, TR_β): 4.02
Measurement of cpd/T3 (maximum ratio) ([1]; TR_LBD agonist, TR_β, maximum relative to T3): 73.4%
α/β ([1]; TR_LBD agonist, ratio TR_α EC50 / TR_β EC50): 7.13
EC50 ([2]; Detection of TR_LBD agonist, read-out: TR_α_EC50): 35.3 nM
Maximum activity ratio (A520/A495) ([2]; TR_LBD agonist, TR_α): 3.83
Measurement of cpd/T3 (maximum ratio) ([2]; TR_LBD agonist, TR_α, maximum relative to T3): 71.1%
Compound: Cn1cnc2ccc(Oc3c(Br)cc(-n4nc(C#N)c(=O)[nH]c4=O)cc3Br)cc21 [Compound 1, 2-(3,5-dibromo-4-((1-methyl-1H-benzo[d]imidazol-6-yl)oxy)phenyl)-3,5-dioxo-2,3,4,5-tetra hydro-1,2,4-triazine-6-carbonitrile]
food utilization rate (weight gain (g)/food intake (100 g)×100%) [3]: reduced significantly
level of triglyceride in blood (TG) ([3]; 5 and 15 mg/kg, compared with the model group): significantly reduces
